The text below walks through data of paper PMC12392461, “Beyond Estrogenicity: A Comparative Assessment of Bisphenol A and Its Alternatives in In Vitro Assays Questions Safety of Replacements” (Environmental Science & Technology, 2025).

In one data set the test system is SH-SY5Y cells. Particulars: for Toxic ratio (TR) TRNOI: against baseline cytotoxicity; for IC10, SH-S5Y5, NOI: cytotoxicity, NOI assay cells. The protocol: Cell culture conditions and bioassay protocols including response detection are provided in Text S2.1–2.4 and Table S3. − Cell viability was determined from cell confluency using an IncuCyte S3 Live-Cell Analysis System (Sartorius AG, Essen, Germany) before and after exposure, except for SH-SY5Y cells (live–dead staining with Nuclear Green LcS1 and propidium iodide, Abcam, UK). For metabolic activation experiments, cell viability was assessed using the ToxBLAzer DualScreen Kit (Thermo Fisher Scientific) to capture the remaining toxicity in ERα-UAS-bla GripTite after treatment with the aCYP catalyst (details in Text S2.4). […]
We measured the cytotoxicity of BPA and its alternatives in HEK293H (PPARγ), HEK293T (ERα), H4IIe (AhR CALUX), MCF7 (ARE/MMP), and differentiated SH-SY5Y cells (Table S6). […]
medium, supplemented with 2% B-27 Supplement and 2 mM GlutaMAX Supplement. SH - SY5Y cells were differentiated with 10 µM all-trans retinoic acid prior to the assay.
S2.2: Cell Seeding and Incubation. For all bioassays, cell suspensions in the respective assay medium were dispensed into each well of 384-well plates using a MultiFlo Dispenser (Biotek, (now Agilent), Winooski, VT, U.S.). After seeding, the plates were incubated at 37° C and 5% […]
(§1) NYC, U.S.) for AhR: 3250 cells/well. Black Collagen I coated plates were used (Product No.
(§2) S2.3: Chemical Dosing and Assay Analysis Procedures. The dosing procedure and high-throughput assay workflow have been described in detail before. 9 The dosing concentrations […]
Stock solutions were then either added directly to the respective cell culture medium or evaporated under nitrogen, followed by replenishment with fresh medium. The final solvent content in each well was kept below 1% for methanol, 0% for acetonitrile.
Dosing plates were prepared as 11 -step serial dilutions using a Hamilton Microlab Star robotic system (Hamilton, Bonaduz, Switzerland), and chemicals were dosed in duplicates by transferring 10 μL twice from the dosing plates to the cell plates . After quantifying cell confluency as described in S2. 4., the exposed cells were incubated at 37° C and 5% CO₂ for an additional 24 h. All chemicals were tested in all assays with at least three independent […]
S2.4: Cell Viability Measurement s and bioanalytical protocols . The confluency as a measure of cell viability was determined with an IncuCyte S3 Live -Cell Analysis System (Sartorius AG, Essen, Germany). With this method the confluency of cells in a microscopy image are normalized to control wells without cells and compared before and after 24 hours of exposure.
This method has been described previously 13. Cell viability of SH-SY5Y cells was measured […]
propidium iodide (PI, Abcam, Cambridge, U.K.).14 Nuclear Green LCS1 is a membrane-permeable dye that stains the nuclei of all cells, whereas PI only enters cells with compromised membrane integrity (non-viable cells). After staining, live cells show green nuclei without red fluorescence, while dead cells display both green and red nuclear fluorescence due to PI […]
intercalation. […]

In data set [1] the test system is Mitochondrial Membrane Potential. Nature of the data set: cells. Particulars: for log(1/EC10) MMP: input of the ToxPi score, values up to 1.00; for Specificity ratio (SRbaseline) SRMMP: against baseline cytotoxicity; for Specificity ratio (SRcytotoxicity) SRMMP: against experimental cytotoxicity; for Relative effect potency REPMMP: relative to BPA; for SR (MMP inhibition): specificity ratio; for EC10, linear / logEC10: MMP bioassay, dosing range all; for EC10, linear: linear model; for logEC10: log-logistic model.
Text: All bioassay media components and the ERα-UAS-bla GripTite and PPARγ-UAS-bla cells were obtained from Thermo Fisher Scientific (Waltham, MA, USA). AREc32 reporter gene cells based on MCF7 were provided by C. Roland Wolf (Cancer Research UK); AhR CALUX cells (H4L7.5c2 derived from H4IIe) were provided by Michael Denison (UC Davis, USA); and SH-SY5Y cells were purchased from Sigma-Aldrich.
Cell culture conditions and bioassay protocols including response detection are provided in Text S2.1–2.4 and Table S3. − Cell viability was determined from cell confluency using an IncuCyte S3 Live-Cell Analysis System (Sartorius AG, Essen, Germany) before and after exposure, except for SH-SY5Y cells (live–dead staining with Nuclear Green LcS1 and propidium iodide, Abcam, UK). For metabolic activation experiments, cell viability was assessed using the ToxBLAzer DualScreen Kit (Thermo Fisher Scientific) to capture the remaining toxicity in ERα-UAS-bla GripTite after treatment with the aCYP catalyst (details in Text S2.4).
For ARE, the concentration that triggered an induction ratio of 1.5 (ECIR1.5) was used as the benchmark value, as detailed in Text S2.5. IC10 values also served as a threshold for data analysis in all assays; only concentrations below IC10 were considered when deriving EC10 or ECIR1.5. […]
S2: Cell culture and bioassays
S2.1: Cell Culturing Conditions
All suppliers and sources are given in detail in SI-Excel S3. The bioassay media for the different assays were prepared as follows: Assay medium for ER alpha-UAS-bla GripTite (ERα) and […]
2% charcoal-stripped FBS, and 100 U/mL penicillin-streptomycin. MitoOxTox and AhR assay medium was comprised of 90% DMEM with GlutaMAX, supplemented with 10% FBS, and 100 U/mL penicillin-streptomycin. […]
S2.2: Cell Seeding and Incubation. For all bioassays, cell suspensions in the respective assay medium were dispensed into each well of 384-well plates using a MultiFlo Dispenser (Biotek, (now Agilent), Winooski, VT, U.S.). After seeding, the plates were incubated at 37° C and 5% CO₂ for […]. The final cell densities and plate types were as follows: Black poly-D-lysine […]
6500 cells/well, ERα: 5000 cells/well. White 384-well plates with a clear bottom (Product No.
as §1, §2
Stock solutions were then either

Setting [2] is: NOI bioassay cytotoxicity, dosing range all.
The mark [3] stands for this setting: NOI bioassay cytotoxicity, dosing range all, linear model.
[4] abbreviates: NOI bioassay cytotoxicity, dosing range all, log-logistic model.
The mark [5] stands for this setting: Arec32, read-out: EC10, linear transformed.
[6] abbreviates: Arec32, read-out: EC10, MMP (M).

Each structure is given as a SMILES string. Where two headings read alike, the source gives them in different places. A value given as a limit tells only on which side of the number the result lay.

As to `COC(=O)C(c1ccc(O)cc1)c1ccc(O)cc1` [Bz, Methyl bis(4-hydroxyphenyl)acetate], the “IC10, linear transformed” value in the data set on SH-SY5Y cells (setting [2]) is 5.07E-04. Further, in the data set on SH-SY5Y cells (setting [3]), the “IC10, linear” value is listed as 3.73E-04. In the data set on SH-SY5Y cells (setting [4]), this compound yielded a logIC10 of -3.30. Besides, in the data set on SH-SY5Y cells, the “Toxic ratio (TR) TRNOI” value is on record as 0.85. Moreover, in the data set with SH-SY5Y cells, the “IC10, SH-S5Y5, NOI” value came out at 373 µM. Besides, the EC10 in data set [1] (Arec32, read-out: EC10, linear) was 3.72e-05 M; in data set [1] (setting [5]) it was 5.74e-05 M; in data set [1] (Arec32, read-out: logEC10) it was 6.46e-05 M. In addition, the “log(1/EC10) MMP” value in data set [1] is recorded as 0.84.

In the case of `O=C(OCc1ccccc1)c1ccc(O)cc1` [BzPB, Benzyl 4-hydroxybenzoate], in the data set on SH-SY5Y cells (setting [2]), the “IC10, linear transformed” value was 3.89E-04. Moreover, the “IC10, linear” value in the data set on SH-SY5Y cells (setting [3]) was “no cytotoxicity”. Besides, the logIC10 in the data set on SH-SY5Y cells (setting [4]) is -3.41. Further, in the data set on SH-SY5Y cells, the “Toxic ratio (TR) TRNOI” value came to 0.07 and the “IC10, SH-S5Y5, NOI” value came to 389 µM. In addition, in data set [1] (Arec32, read-out: EC10, MMP), the EC10 was found to be 2.44e-05 M. In addition, the EC10 in data set [1] (setting [6]) turned out to be 2.44e-05 M. For the same compound, the EC10 in data set [1] (Arec32, read-out: EC10, linear) was 1.68e-05 M. Besides, the EC10 in data set [1] (setting [5]) amounted to 2.45e-05 M. In data set [1] (Arec32, read-out: logEC10), the EC10 was 2.45e-05 M. In addition, in data set [1], the “Specificity ratio (SRbaseline) SRMMP” value amounted to 1.38, the “Specificity ratio (SRcytotoxicity) SRMMP” value is reported as 12.18, the “Relative effect potency REPMMP” value is given as 1.15 and the “SR (MMP inhibition)” value was more than 10.

Regarding `CC(C)Oc1ccc(S(=O)(=O)c2ccc(O)cc2)cc1` [D8, 4-((4-Isopropoxyphenyl)sulfonyl)phenol], in the data set with SH-SY5Y cells, the “IC10, linear” value was “no cytotoxicity” and the “Toxic ratio (TR) TRNOI” value came out at 0.22. In addition, the logIC10 with SH-SY5Y cells (human, 24 h) is -3.31. Also, in data set [1] (Arec32, read-out: EC10, MMP), the EC10 is 5.2e-05 M. Further, the EC10 in data set [1] (setting [6]) turned out to be 5.2e-05 M. Also, in data set [1] (Arec32, read-out: EC10, linear), the EC10 is 5.8e-05 M. In addition, the EC10 in data set [1] (setting [5]) came to 5.14e-05 M. The EC10 in data set [1] (Arec32, read-out: logEC10) was 5.25e-05 M. Besides, in data set [1], the “Specificity ratio (SRbaseline) SRMMP” value was found to be 2.47, the “Specificity ratio (SRcytotoxicity) SRMMP” value is recorded as 41.11, the “Relative effect potency REPMMP” value was 0.54 and the “SR (MMP inhibition)” value is 41.

`Cc1ccc(S(=O)(=O)NC(=O)Nc2cccc(OS(=O)(=O)c3ccc(C)cc3)c2)cc1` [Pergafast, N-(p-toluenesulfonyl)-N'-(3-(p-toluenesulfonyloxy)phenyl)urea]: in the data set on SH-SY5Y cells (setting [3]), the “IC10, linear” value was determined as 4.94E-05. In addition, the logIC10 result in the data set with SH-SY5Y cells (setting [4]) was “no cytotoxicity”. Also, in the data set with SH-SY5Y cells, the “Toxic ratio (TR) TRNOI” value is 2.23 and the “IC10, SH-S5Y5, NOI” value was 49.4 µM. In data set [1], the “EC10, linear” value was “no effect”; the logEC10 result is “no effect”; the “log(1/EC10) MMP” value was determined as 0.92.

Regarding `CC(C)(c1cc(Br)c(O)c(Br)c1)c1cc(Br)c(O)c(Br)c1` [TBBPA, 3,3',5,5'-Tetrabromobisphenol A], the “IC10, linear” value with SH-SY5Y cells (setting [3]) is on record as “no cytotoxicity”. Further, the logIC10 entry in the data set with SH-SY5Y cells (setting [4]) is reported as “no cytotoxicity”. The EC10 in data set [1] (Arec32, read-out: EC10, MMP) is 2.83e-05 M; in data set [1] (setting [6]), 2.83e-05 M; in data set [1] (Arec32, read-out: EC10, linear), 1.94e-05 M; in data set [1] (setting [5]), 2.89e-05 M; in data set [1] (Arec32, read-out: logEC10), 2.82e-05 M.

For `CC(C)(c1cc(Cl)c(O)c(Cl)c1)c1cc(Cl)c(O)c(Cl)c1` [TCBPA, 2,2',6,6'-Tetrachlorobisphenol A], the “IC10, linear” value in the data set with SH-SY5Y cells (setting [3]) is 3.70E-08. For the same compound, in the data set with SH-SY5Y cells (setting [4]), the logIC10 result is reported as “no cytotoxicity”. Besides, the EC10 in data set [1] (Arec32, read-out: EC10, MMP) was 1.48e-05 M; in data set [1] (setting [6]) it was 1.48e-05 M; in data set [1] (Arec32, read-out: EC10, linear), 1.15e-05 M; in data set [1] (setting [5]), 1.6e-05 M; in data set [1] (Arec32, read-out: logEC10) it was 1.48e-05 M.

On to `Cc1cc(Cc2cc(C)c(O)c(C)c2)cc(C)c1O` [TMBPF, Bis(3,5-dimethyl-4-hydroxyphenyl)methane], for which, in the data set on SH-SY5Y cells (setting [2]), the “IC10, linear transformed” value is given as 1.27E-05. The “IC10, linear” value in the data set on SH-SY5Y cells (setting [3]) is reported as 1.62E-05. The compound further came in with a logIC10 in the data set on SH-SY5Y cells (setting [4]) of -4.90. In the data set on SH-SY5Y cells, the “Toxic ratio (TR) TRNOI” value came out at 0.73 and the “IC10, SH-S5Y5, NOI” value is 12.7 µM. Besides, in data set [1] (setting [5]), the EC10 is 6.68e-05 M. Further, in data set [1], the “EC10, linear” value is “no effect” and the logEC10 entry is listed as “no effect”.

Regarding `CC1(C)[C@H](O)C(C)(C)[C@H]1O` [Trans TMCD], in the data set on SH-SY5Y cells (setting [3]), the “IC10, linear” value is given as “no cytotoxicity”. Also, the logIC10 entry in the data set with SH-SY5Y cells (setting [4]) was “no cytotoxicity”. In addition, the EC10 is 0.0141 M in data set [1] (Arec32, read-out: EC10, linear); 0.0185 M in data set [1] (setting [5]); 0.0186 M in data set [1] (Arec32, read-out: logEC10).
